Molecules are shown by their SMILES.

The subject of the assay is expert panel of three subjects. Briefly: Sensory evaluation of toothpaste test formulations by an expert panel: intensity of mint flavor and of cooling effect. In kind it is in vivo, human. To be noted: test toothpaste formulation, summary of Table 8. As to the method:
The potentiation may be determined by any method readily selected by one of ordinary skill in the art. In some aspects, the potentiation is determined using a sensory panel. In the aspects where the potentiation is determined using a sensory panel a subject may contact their oral cavity with a composition, and rate the perceived flavor strength and cooing strength of the composition.
In some aspects, the perceived flavor intensity may be rated from 0 to 5, wherein 0 is no perceived flavor intensity, 1 is a very low perceived flavor intensity, 2 is a low perceived flavor intensity, 3 is a moderate perceived flavor intensity, 4 is a high perceived flavor intensity, and 5 is a very high perceived flavor intensity.
In some aspects, the perceived cooling intensity may be rated from 0 to 5, wherein 0 is no perceived cooling intensity, 1 is a very low perceived cooling intensity, 2 is a low perceived cooling intensity, 3 is a moderate perceived cooling intensity, 4 is a high perceived cooling intensity, and 5 is a very high perceived […].
(§1) An expert panel of three subjects was asked to evaluate the intensity of the mint flavor and the intensity of the cooling effect of the test formulations. The subjects were asked to apply approximately 1 g of a test sample on to a toothbrush, and rinse the toothbrush under running water for 5 secs to moisten the paste and soften the bristles. The subjects then brushed their teeth with the applied test sample, taking care to minimize any contact with the subjects' gums. The subjects then expectorated the test sample, and rinsed their mouth with water. The subjects then ranked the intensity of the mint flavor and the intensity of the cooling effect of the test formulations. The subjects were asked to wait for 15 min between each test sample.
as §1, with “subjects” for “subjects was”
`COc1cc(/C=C/C(=O)O)ccc1O` [ferulic acid]: the “effect on perceived flavor intensity and perceived cooling intensity of the mint flavor” value (from here on “effect”) is “able to increase both the perceived flavor intensity and the perceived cooling intensity”.

Take `CCCC(CCC)NC(=O)c1ccc2c(c1)OCO2` [n-(1-propylbutyl)-1,3-benzodioxole-5-carboxamide]: the “effect” value was “able to increase both the perceived flavor intensity and the perceived cooling intensity”.

On to `O=C(CCc1ccc(O)cc1)c1c(O)cc(O)cc1O` [phloretin], for which the “effect” value is “able to increase both the perceived flavor intensity and the perceived cooling intensity”.

`O=C(O)C1CCCCC1` [cyclohexanecarboxylic acid]: the “effect” value was “able to increase both the perceived flavor intensity and the perceived cooling intensity”.

On to `CCCCC[C@@H]1C(=O)CC[C@@H]1CC(=O)OC` [(+)-methyl(1R)-cis-3-oxo-2-pentyl-1-cyclopentaneacetate], for which the “effect” value was “able to increase both the perceived flavor intensity and the perceived cooling intensity”.

On to `Cc1noc(C)c1Cn1cc(N2C(=O)CN(Cc3cccc(O)c3)C2=O)cn1` [3-(1-((3,5-dimethylisoxazol-4-yl)methyl)-1H-pyrazol-4-yl)-1-(3-hydroxybenzyl)imidazolidine-2,4-dione], for which the “effect” value was “able to increase both the perceived flavor intensity and the perceived cooling intensity”.

For the compound `COC(C)=O` [methyl acetate], the “effect” value is “able to increase both the perceived flavor intensity and the perceived cooling intensity”.

Source of the values: patent US11801209B2, “Cooling and flavor boosting compositions” (Firmenich SA, priority 2017, dated 2023).
